Five compounds from BindingDB's records for doi:10.7270/Q2SX6GDH (n/a, 1996) can be followed below.

Structures are written as SMILES.

In test [1] the target is T1, 5-hydroxytryptamine receptor 3A/3B (Rattus norvegicus, UniProt P35563+Q9JJ16).
T1 sequence (P35563 whole entry): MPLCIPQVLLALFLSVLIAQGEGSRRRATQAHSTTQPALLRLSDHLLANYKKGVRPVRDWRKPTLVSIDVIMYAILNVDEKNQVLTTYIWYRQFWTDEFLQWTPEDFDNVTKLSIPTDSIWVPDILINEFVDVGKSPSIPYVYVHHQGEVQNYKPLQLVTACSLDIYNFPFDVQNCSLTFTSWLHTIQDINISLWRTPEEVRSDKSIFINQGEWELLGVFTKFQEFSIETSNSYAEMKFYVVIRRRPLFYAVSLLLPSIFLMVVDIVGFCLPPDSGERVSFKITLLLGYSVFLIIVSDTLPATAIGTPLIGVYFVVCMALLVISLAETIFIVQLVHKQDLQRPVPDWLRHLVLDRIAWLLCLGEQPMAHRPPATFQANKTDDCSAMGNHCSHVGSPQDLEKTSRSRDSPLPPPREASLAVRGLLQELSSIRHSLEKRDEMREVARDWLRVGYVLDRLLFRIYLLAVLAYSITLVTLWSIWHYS
T1 sequence (Q9JJ16 whole entry): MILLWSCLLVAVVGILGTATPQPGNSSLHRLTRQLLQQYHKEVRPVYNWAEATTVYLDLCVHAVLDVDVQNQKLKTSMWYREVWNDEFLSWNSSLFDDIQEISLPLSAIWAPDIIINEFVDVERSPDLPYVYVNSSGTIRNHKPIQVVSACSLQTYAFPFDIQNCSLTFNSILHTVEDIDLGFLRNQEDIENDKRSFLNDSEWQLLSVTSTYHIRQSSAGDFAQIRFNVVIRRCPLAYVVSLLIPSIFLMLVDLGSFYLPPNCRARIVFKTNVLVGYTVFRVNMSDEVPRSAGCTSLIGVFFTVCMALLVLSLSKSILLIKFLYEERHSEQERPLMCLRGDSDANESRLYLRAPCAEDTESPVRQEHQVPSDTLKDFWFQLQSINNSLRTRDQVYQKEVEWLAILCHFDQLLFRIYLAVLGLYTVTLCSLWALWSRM
Kind of test: (§1) Compound was tested for its ability to displace [3H]-Q-ICS 205-930 from 5-hydroxytryptamine 3 receptor in rat cortex homogenates.

For test [2], the target named is 5-hydroxytryptamine receptor 2A (Rattus norvegicus, UniProt P14842). Nature of the test: ChEBML_2582. As to the method: Compound was tested for its ability to displace [3H]DOB from 5-hydroxytryptamine 2A receptor in rat cortex homogenates
Chain of 5-hydroxytryptamine receptor 2A (P14842 whole entry): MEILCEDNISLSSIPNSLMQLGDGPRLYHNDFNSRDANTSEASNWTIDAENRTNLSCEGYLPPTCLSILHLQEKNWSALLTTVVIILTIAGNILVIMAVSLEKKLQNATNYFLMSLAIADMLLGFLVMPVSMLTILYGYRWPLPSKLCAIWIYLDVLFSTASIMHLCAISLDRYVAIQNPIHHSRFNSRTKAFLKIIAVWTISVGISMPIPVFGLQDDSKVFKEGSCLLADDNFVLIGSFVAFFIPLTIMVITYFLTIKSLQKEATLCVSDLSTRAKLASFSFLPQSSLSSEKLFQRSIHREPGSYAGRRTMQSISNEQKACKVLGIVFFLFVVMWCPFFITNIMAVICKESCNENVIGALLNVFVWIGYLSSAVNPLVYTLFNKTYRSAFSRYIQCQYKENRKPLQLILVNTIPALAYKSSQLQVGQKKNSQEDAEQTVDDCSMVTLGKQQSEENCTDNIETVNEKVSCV
Test [3] concerns the target T2, 5-hydroxytryptamine receptor 1D (Sus scrofa, UniProt P79400). Nature of the test: ChEBML_1955. As to the method: (§2) Compound was tested for its ability to displace [3H]-5-HT binding to 5-hydroxytryptamine 1D receptor recognition sites in pig caudate membranes
Test [4] concerns the target T2, 5-hydroxytryptamine receptor 1D. The test is described as §2.
For test [5] the target is unchanged. Kind of test: Compound was tested for its ability to displace [125I]GTI binding to 5-hydroxytryptamine 1D receptor recognition sites in pig caudate membranes.
Test [6] in a line: Compound was tested for its ability to displace [3H]-5-HT binding to 5-hydroxytryptamine 1D receptor recognition sites in pig caudate membranes.
A short description of test [7]: Compound was tested for its ability to displace [3H]8-OH-DPAT from 5-hydroxytryptamine 1A receptor in pig cortex.
Test [8] is described as follows: Compound was tested for its ability to displace [3H]mesulergine from 5-hydroxytryptamine 2C receptor in pig cortex.
Test [9] has as its target T1, 5-hydroxytryptamine receptor 3A/3B. Nature of the test: ChEBML_3165. The method, then: as §1

T2 sequence (P79400 whole entry): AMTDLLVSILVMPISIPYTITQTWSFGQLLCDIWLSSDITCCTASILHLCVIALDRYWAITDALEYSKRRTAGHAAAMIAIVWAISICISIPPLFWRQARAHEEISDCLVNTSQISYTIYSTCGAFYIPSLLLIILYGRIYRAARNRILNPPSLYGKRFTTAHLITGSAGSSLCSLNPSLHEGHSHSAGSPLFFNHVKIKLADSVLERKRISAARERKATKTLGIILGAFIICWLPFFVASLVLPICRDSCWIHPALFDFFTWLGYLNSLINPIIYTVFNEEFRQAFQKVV

Usually IC50 stands for the concentration that inhibits the measured activity by half. `CNS(=O)(=O)Cc1ccc2[nH]cc(CCN(C)C)c2c1` [Sumax]: in [1], the IC50 is more than 10000 nM.
Take `CN1CCC(c2c[nH]c3ccc(-n4cnnc4)cc23)CC1`: the IC50 in test [1] was 2700 nM; in [2] it was more than 10000 nM; in test [3] it was 1.2 nM; in test [4] it was 8 nM.
Turning to `CN(C)CCc1c[nH]c2ccc(Cn3cncn3)cc12` [N,N-dimethyl-2-[5-(1H-1,2,4-triazol-1-ylmethyl)-1H-indol-3-yl]ethanamine], the IC50 in [1] came to 4100 nM; in test [2], 7200 nM; in test [5] it was 16 nM; in test [4], 49 nM.
As for `CN(C)CCc1c[nH]c2ccc(-n3cncn3)cc12`, the values for the IC50 in [6], in [7] and in test [8] were 20 nM, 25 nM and 500 nM, respectively.
For the compound `CN(C)CCc1c[nH]c2ccc(-n3cnnc3)cc12` [Dimethyl-[2-(5-[1,2,4]triazol-4-yl-1H-indol-3-yl)-ethyl]-amine], the IC50 in test [9] is more than 10000 nM; in test [2] it was more than 10000 nM; in test [3] it was 0.43 nM; in test [4] it was 2 nM.
